Assays:
endogenous CGRP receptor = endogenous CGRP receptor (Homo sapiens, UniProt O60894+Q16602); assay: CGRP functional antagonism using SK-N-MC-BLA (4C10), β-lactamase transcriptional reporter assay; format: cell-based; details: SK-N-MC (4C10) cells, inhibition of β-lactamase expression in the presence of 200 pM CGRP
[1] = target: T1, CGRP receptor (SK-N-MC membrane) (Homo sapiens, UniProt O60894+Q16602); assay: I125-CGRP binding displacement assay on purified SK-N-MC membrane
T1 construct: Purified SK-N-MC membrane was purchased from Perkin Elmer; purchased Perkin Elmer; host or cells: SK-N-MC membrane
Experimental: Purified SK-N-MC membrane was purchased from Perkin Elmer. The membrane was thawed quickly and placed on ice. The compounds were diluted with CGRP binding solution (25 mM Tris-HCl, pH7.4, 5 mM MgCl2, 0.1% BSA and 0.05% Tween). The membrane was diluted 1:20 with the binding solution and homogenized with Tissue Matster-50 Homogenizer (Omni International) for 30 sec. The homogenized membrane was added to compounds in the binding solution. […] After 2 hour incubation at room temperature, the reaction was stopped by rapid filtration through 0.5% PEI treated GF/C filter plate (Perkin Elmer) and the filter plate was washed with ice-cold washing solution (50 mM Tris HCl, pH7.4, 5 mM MgCl2 and 0.1% BSA) using cell harvestor (Tomtec). The radioactivity of the filter plates were read on Topcount (Packard). The nonspecific binding was determined in the control reaction where 1 uM unlabelled CGRP was preincubated with the membrane prior to I125-CGRP addition. The total binding was determined in the control reaction of the membrane and I125-CGRP in the absence of compound. The percent displacement of I125-CGRP with compounds was calculated using nonspecific and total binding controls. The curve fitting was carried out using MOD3.

T1 sequence (Q16602 23-461): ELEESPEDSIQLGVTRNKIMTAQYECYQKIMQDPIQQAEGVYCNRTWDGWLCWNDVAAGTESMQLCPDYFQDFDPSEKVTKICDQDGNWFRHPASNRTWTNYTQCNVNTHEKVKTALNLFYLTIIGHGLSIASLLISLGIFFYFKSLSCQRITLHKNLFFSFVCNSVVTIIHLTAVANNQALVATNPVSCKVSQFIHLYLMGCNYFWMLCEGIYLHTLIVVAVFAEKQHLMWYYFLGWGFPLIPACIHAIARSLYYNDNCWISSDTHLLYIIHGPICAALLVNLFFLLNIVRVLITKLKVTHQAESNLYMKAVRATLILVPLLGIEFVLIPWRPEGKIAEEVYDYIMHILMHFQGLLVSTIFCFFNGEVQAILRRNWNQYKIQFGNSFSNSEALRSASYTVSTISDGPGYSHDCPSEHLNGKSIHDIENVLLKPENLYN
T1 sequence (O60894 27-148): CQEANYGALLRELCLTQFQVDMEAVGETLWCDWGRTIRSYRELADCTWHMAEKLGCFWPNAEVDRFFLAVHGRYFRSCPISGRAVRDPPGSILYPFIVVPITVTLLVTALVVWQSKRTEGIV
endogenous CGRP receptor, sequence (Q16602 23-461): as the sequence (Q16602 23-461) above
endogenous CGRP receptor, sequence (O60894 27-148): as the sequence (O60894 27-148) above

Structure (SMILES) | IC50 (endogenous CGRP receptor) [µM] | Ki [1] [µM]
CC(C)OCCN1C(=O)[C@H](CC(=O)N2CCC(n3c(=O)[nH]c4ncccc43)CC2)SC1c1cccc(F)c1N1CCN(C(C)(C)C)CC1 (some centres unmarked) [Compound 531] | < 1 | < 1
CC(C)(C)CCN1C(=O)C(CC(=O)N2CCC(N3Cc4ccccc4NC3=O)CC2)SC1c1ccccc1N1CCN(c2ccccc2)CC1 (centres unmarked) [Compound 367] | < 1 | < 1
CC(C)(C)CCN1C(=O)C(CC(=O)N2CCC(N3Cc4ccccc4NC3=O)CC2)SC1c1ccccc1N1CCN(CCO)CC1 (centres unmarked) [Compound 371] | < 1 | < 1
CC(C)CN1CCN(c2ccccc2[C@H]2S[C@@H](CC(=O)N3CCC(N4CCc5ccccc5NC4=O)CC3)C(=O)N2CCC(C)(C)C)C(=O)C1 [Compound 541] | < 1 | < 1
CCCCN1C(=O)[C@H](CC(=O)N2CCC(N3CCc4ccccc4NC3=O)CC2)SC1c1cccc(F)c1N1CCN(C(C)(C)C)CC1 (some centres unmarked) [Compound 521] | < 1 | < 1
CCCCN1C(=O)[C@H](CC(=O)N2CCC(N3CCc4ccccc4NC3=O)CC2)SC1c1cccc(F)c1N1CCN(C(C)(C)C)CC1 (some centres unmarked) [Compound 522] | < 1 | < 1
CC(C)(C)CCN1C(=O)[C@H](CC(=O)N2CCC(n3c(=O)[nH]c4ncccc43)CC2)SC1c1cccc(F)c1N1CCC(O)C1 (some centres unmarked) [Compound 484] | < 1 | < 1
CC(C)(C)CCN1C(=O)C(CC(=O)N2CCC(n3c(=O)[nH]c4ccccc43)CC2)S[C@H]1c1ccccc1N1CCC(O)CC1 (some centres unmarked) [Compound 301] | < 1 | < 1
CC(C)OCCN1C(=O)[C@H](CC(=O)N2CCC(N3CCc4ccccc4NC3=O)CC2)SC1c1cccc(F)c1N1CCN(C(C)(C)C)CC1 (some centres unmarked) [Compound 529] | < 1 | < 1
CC(C)(C)CCN1C(=O)C(CC(=O)N2CCC(N3CCc4ccccc4NC3=O)CC2)SC1c1cccc(F)c1N1CCNCC1 (centres unmarked) [Compound 391] | > 5 | > 5
CC(C)(C)CCN1C(=O)C(CC(=O)N2CCC(N3CCc4ccccc4NC3=O)CC2)SC1c1ccccc1-n1ccnc1 (centres unmarked) [Compound 28] | < 1 | < 1

More lines, now with the values ahead:

IC50 (endogenous CGRP receptor) [µM] | Ki [1] [µM] | Structure (SMILES)
1 to 5 | < 1 | COCCN1C(=O)C(CC(=O)N2CCC(N3Cc4ccccc4NC3=O)CC2)SC1c1ccccc1 (centres unmarked) [Compound 30]
< 1 | < 1 | Cc1ccccc1C1SC(CC(=O)N2CCC(N3CCc4ccccc4NC3=O)CC2)C(=O)N1CCC(C)C (centres unmarked) [Compound 171]
1 to 5 | > 5 | COc1cccc(C2SC(CC(=O)N3CCC(n4cc(-c5ccccc5)[nH]c4=O)CC3)C(=O)N2CCC(C)C)c1 (centres unmarked) [Compound 61]
1 to 5 | 1 to 5 | Cc1ccc(C2SC(CC(=O)N3CCC(N4Cc5ccccc5NC4=O)CC3)C(=O)N2CCC(C)C)cc1C (centres unmarked) [Compound 204]
> 5 | 1 to 5 | O=C(CC1SC(Cc2ccccc2)N(CC(F)(F)F)C1=O)N1CCC(N2Cc3ccccc3NC2=O)CC1 (centres unmarked) [Compound 190]
< 1 | < 1 | CC(C)CCN1C(=O)C(CC(=O)N2CCC(N3Cc4ccccc4NC3=O)CC2)SC1c1ccccc1Br (centres unmarked) [Compound 268]
< 1 | < 1 | CC(C)CCN1C(=O)C(CC(=O)N2CCC(N3Cc4ccccc4NC3=O)CC2)SC1c1ccc(F)c(F)c1 (centres unmarked) [Compound 202]
< 1 | < 1 | CC(C)CCN1C(=O)C(CC(=O)N2CCC(N3CCc4ccccc4NC3=O)CC2)SC1c1c(F)cccc1C(F)(F)F (centres unmarked) [Compound 194]
> 5 | 1 to 5 | CC(C)(C)N1C(=O)C(CC(=O)N2CCC(N3Cc4ccccc4NC3=O)CC2)SC1c1ccccc1 (centres unmarked) [Compound 251]
< 1 | < 1 | CC(C)CCN1C(=O)C(CC(=O)N2CCC(N3Cc4ccccc4NC3=O)CC2)SC1C1CCCC1 (centres unmarked) [Compound 188]
< 1 | < 1 | CC(C)CCN1C(=O)C(CC(=O)N2CCC(N3CCc4ccccc4NC3=O)CC2)SC1c1ccccc1N1CCC(O)CC1 (centres unmarked) [Compound 120]
